Measured values taken from ChEMBL document CHEMBL4004803, “Syntheses and antibacterial activity of soluble 9-bromo substituted indolizinoquinoline-5,12-dione derivatives” (Eur J Med Chem, 2017).
Converted amounts (≈) assume the structure as drawn.

What was measured:
Type in all cases: functional
Staphylococcus aureus [1] = test: Antibacterial activity against methicillin-resistant Staphylococcus aureus 110910-2 clinical isolate after 20 to 24 hrs by two-fold microdilution method
Staphylococcus aureus [2] = test: Antibacterial activity against methicillin-resistant Staphylococcus aureus 921026 clinical isolate after 20 to 24 hrs by two-fold microdilution method
Staphylococcus aureus [3] = test: Antibacterial activity against methicillin-resistant Staphylococcus aureus 20534 clinical isolate after 20 to 24 hrs by two-fold microdilution method
Staphylococcus aureus [4] = test: Antibacterial activity against methicillin-resistant Staphylococcus aureus 103054 clinical isolate after 20 to 24 hrs by two-fold microdilution method
Staphylococcus aureus [5] = test: Antibacterial activity against methicillin-resistant Staphylococcus aureus 19950 clinical isolate after 20 to 24 hrs by two-fold microdilution method
Staphylococcus aureus [6] = test: Antibacterial activity against methicillin-resistant Staphylococcus aureus 1101016 clinical isolate after 20 to 24 hrs by two-fold microdilution method
Staphylococcus aureus [7] = test: Antibacterial activity against methicillin-resistant Staphylococcus aureus 305026 clinical isolate after 20 to 24 hrs by two-fold microdilution method
Staphylococcus aureus [8] = test: Antibacterial activity against methicillin-resistant Staphylococcus aureus 110834 clinical isolate after 20 to 24 hrs by two-fold microdilution method
Staphylococcus aureus [9] = test: Antibacterial activity against methicillin-resistant Staphylococcus aureus 216054 clinical isolate after 20 to 24 hrs by two-fold microdilution method
Streptococcus pneumoniae = test: Antibacterial activity against Streptococcus pneumoniae ATCC 6305 after 20 to 24 hrs by two-fold microdilution method
Staphylococcus aureus [10] = test: Antibacterial activity against methicillin-resistant Staphylococcus aureus 215073 clinical isolate after 20 to 24 hrs by two-fold microdilution method
Staphylococcus aureus [11] = test: Antibacterial activity against methicillin-resistant Staphylococcus aureus 1128040 clinical isolate after 20 to 24 hrs by two-fold microdilution method
Staphylococcus aureus [12] = test: Antibacterial activity against methicillin-resistant Staphylococcus aureus 531220 clinical isolate after 20 to 24 hrs by two-fold microdilution method
Staphylococcus aureus [13] = test: Antibacterial activity against methicillin-resistant Staphylococcus aureus 118038 clinical isolate after 20 to 24 hrs by two-fold microdilution method
Staphylococcus aureus [14] = test: Antibacterial activity against methicillin-resistant Staphylococcus aureus 110325 clinical isolate after 20 to 24 hrs by two-fold microdilution method
Staphylococcus aureus [15] = test: Antibacterial activity against methicillin-resistant Staphylococcus aureus 1029025 clinical isolate after 20 to 24 hrs by two-fold microdilution method
Staphylococcus aureus [16] = test: Antibacterial activity against methicillin-resistant Staphylococcus aureus 11819 clinical isolate after 20 to 24 hrs by two-fold microdilution method
Staphylococcus aureus [17] = test: Antibacterial activity against methicillin-resistant Staphylococcus aureus 822030 clinical isolate after 20 to 24 hrs by two-fold microdilution method
Staphylococcus aureus [18] = test: Antibacterial activity against methicillin-resistant Staphylococcus aureus 414244 clinical isolate after 20 to 24 hrs by two-fold microdilution method
Staphylococcus aureus [19] = test: Antibacterial activity against methicillin-resistant Staphylococcus aureus 219236 clinical isolate after 20 to 24 hrs by two-fold microdilution method
Staphylococcus aureus [20] = test: Antibacterial activity against methicillin-resistant Staphylococcus aureus 202045 clinical isolate after 20 to 24 hrs by two-fold microdilution method
Staphylococcus aureus [21] = test: Antibacterial activity against methicillin-resistant Staphylococcus aureus ATCC 43300 after 20 to 24 hrs by two-fold microdilution method
Staphylococcus aureus [22] = test: Antibacterial activity against methicillin-resistant Staphylococcus aureus 1211026 clinical isolate after 20 to 24 hrs by two-fold microdilution method
Staphylococcus aureus [23] = test: Antibacterial activity against methicillin-resistant Staphylococcus aureus 30116-1 clinical isolate after 20 to 24 hrs by two-fold microdilution method
Staphylococcus aureus [24] = test: Antibacterial activity against methicillin-resistant Staphylococcus aureus 829034 clinical isolate after 20 to 24 hrs by two-fold microdilution method
Staphylococcus aureus [25] = test: Antibacterial activity against methicillin-resistant Staphylococcus aureus 20339 clinical isolate after 20 to 24 hrs by two-fold microdilution method
Staphylococcus aureus [26] = test: Antibacterial activity against methicillin-resistant Staphylococcus aureus 625032 clinical isolate after 20 to 24 hrs by two-fold microdilution method
Staphylococcus aureus [27] = test: Antibacterial activity against methicillin-resistant Staphylococcus aureus 102849 clinical isolate after 20 to 24 hrs by two-fold microdilution method
Staphylococcus aureus [28] = test: Antibacterial activity against methicillin-resistant Staphylococcus aureus 1019240 clinical isolate after 20 to 24 hrs by two-fold microdilution method
Staphylococcus aureus [29] = test: Antibacterial activity against methicillin-resistant Staphylococcus aureus 1215028 clinical isolate after 20 to 24 hrs by two-fold microdilution method
Staphylococcus aureus [30] = test: Antibacterial activity against methicillin-resistant Staphylococcus aureus 109016 clinical isolate after 20 to 24 hrs by two-fold microdilution method
Staphylococcus aureus [31] = test: Antibacterial activity against methicillin-resistant Staphylococcus aureus 110432 clinical isolate after 20 to 24 hrs by two-fold microdilution method
Staphylococcus aureus [32] = test: Antibacterial activity against methicillin-resistant Staphylococcus aureus 110328-1 clinical isolate after 20 to 24 hrs by two-fold microdilution method
Streptococcus pyogenes = test: Antibacterial activity against Streptococcus pyogenes ATCC 19615 after 20 to 24 hrs by two-fold microdilution method
Staphylococcus aureus [33] = test: Antibacterial activity against methicillin-resistant Staphylococcus aureus 131215 clinical isolate after 20 to 24 hrs by two-fold microdilution method
Staphylococcus aureus [34] = test: Antibacterial activity against methicillin-resistant Staphylococcus aureus 1012039 clinical isolate after 20 to 24 hrs by two-fold microdilution method
Staphylococcus aureus [35] = test: Antibacterial activity against methicillin-resistant Staphylococcus aureus 121026 clinical isolate after 20 to 24 hrs by two-fold microdilution method
Staphylococcus aureus [36] = test: Antibacterial activity against methicillin-resistant Staphylococcus aureus 304243 clinical isolate after 20 to 24 hrs by two-fold microdilution method
Staphylococcus aureus [37] = test: Antibacterial activity against methicillin-resistant Staphylococcus aureus 1212221 clinical isolate after 20 to 24 hrs by two-fold microdilution method
Staphylococcus aureus [38] = test: Antibacterial activity against methicillin-resistant Staphylococcus aureus 20106-2 clinical isolate after 20 to 24 hrs by two-fold microdilution method
Staphylococcus aureus [39] = test: Antibacterial activity against methicillin-resistant Staphylococcus aureus 919205 clinical isolate after 20 to 24 hrs by two-fold microdilution method
Staphylococcus aureus [40] = test: Antibacterial activity against methicillin-resistant Staphylococcus aureus 519238 clinical isolate after 20 to 24 hrs by two-fold microdilution method
Staphylococcus aureus [41] = test: Antibacterial activity against methicillin-resistant Staphylococcus aureus 1111047-1 clinical isolate after 20 to 24 hrs by two-fold microdilution method
Staphylococcus aureus [42] = test: Antibacterial activity against methicillin-resistant Staphylococcus aureus 1216052 clinical isolate after 20 to 24 hrs by two-fold microdilution method
Staphylococcus aureus [43] = test: Antibacterial activity against methicillin-resistant Staphylococcus aureus 11703 clinical isolate after 20 to 24 hrs by two-fold microdilution method
Staphylococcus aureus [44] = test: Antibacterial activity against methicillin-resistant Staphylococcus aureus 1113041 clinical isolate after 20 to 24 hrs by two-fold microdilution method
Staphylococcus aureus [45] = test: Antibacterial activity against methicillin-resistant Staphylococcus aureus 121969 clinical isolate after 20 to 24 hrs by two-fold microdilution method

O=C1c2cccnc2C(=O)c2c1c(C(=O)OCCCCCCN1CCCCC1)c1ccc(Br)cn21
MIC (Staphylococcus aureus [1]): 0.016 µg/mL (≈ 0.0297 µM)
MIC (Staphylococcus aureus [2]): 0.063 µg/mL (≈ 0.117 µM)
MIC (Staphylococcus aureus [3]): 0.125 µg/mL (≈ 0.232 µM)
MIC (Staphylococcus aureus [4]): 0.031 µg/mL (≈ 0.0576 µM)
MIC (Staphylococcus aureus [5]): 0.063 µg/mL (≈ 0.117 µM)
MIC (Staphylococcus aureus [6]): 0.063 µg/mL (≈ 0.117 µM)
MIC (Staphylococcus aureus [7]): ≤ 0.0078 µg/mL
MIC (Staphylococcus aureus [8]): 0.063 µg/mL (≈ 0.117 µM)
MIC (Staphylococcus aureus [9]): ≤ 0.0078 µg/mL
MIC (Streptococcus pneumoniae): 0.5 µg/mL (≈ 0.929 µM)
MIC (Staphylococcus aureus [10]): 0.016 µg/mL (≈ 0.0297 µM)
MIC (Staphylococcus aureus [11]): 0.063 µg/mL (≈ 0.117 µM)
MIC (Staphylococcus aureus [12]): 0.25 µg/mL (≈ 0.464 µM)
MIC (Staphylococcus aureus [13]): 0.063 µg/mL (≈ 0.117 µM)
MIC (Staphylococcus aureus [14]): 0.031 µg/mL (≈ 0.0576 µM)
MIC (Staphylococcus aureus [15]): 0.063 µg/mL (≈ 0.117 µM)
MIC (Staphylococcus aureus [16]): 0.063 µg/mL (≈ 0.117 µM)
MIC (Staphylococcus aureus [17]): 0.125 µg/mL (≈ 0.232 µM)
MIC (Staphylococcus aureus [18]): 0.063 µg/mL (≈ 0.117 µM)
MIC (Staphylococcus aureus [19]): ≤ 0.0078 µg/mL
MIC (Staphylococcus aureus [20]): ≤ 0.0078 µg/mL
MIC (Staphylococcus aureus [21]): 0.063 µg/mL (≈ 0.117 µM)
MIC (Staphylococcus aureus [22]): 0.031 µg/mL (≈ 0.0576 µM)
MIC (Staphylococcus aureus [23]): 0.063 µg/mL (≈ 0.117 µM)
MIC (Staphylococcus aureus [24]): 0.25 µg/mL (≈ 0.464 µM)
MIC (Staphylococcus aureus [25]): 0.125 µg/mL (≈ 0.232 µM)
MIC (Staphylococcus aureus [26]): 0.25 µg/mL (≈ 0.464 µM)
MIC (Staphylococcus aureus [27]): 0.063 µg/mL (≈ 0.117 µM)
MIC (Staphylococcus aureus [28]): 0.125 µg/mL (≈ 0.232 µM)
MIC (Staphylococcus aureus [29]): 0.063 µg/mL (≈ 0.117 µM)
MIC (Staphylococcus aureus [30]): 0.031 µg/mL (≈ 0.0576 µM)
MIC (Staphylococcus aureus [31]): 0.063 µg/mL (≈ 0.117 µM)
MIC (Staphylococcus aureus [32]): 0.125 µg/mL (≈ 0.232 µM)
MIC (Streptococcus pyogenes): 2 µg/mL (≈ 3.71 µM)
MIC (Staphylococcus aureus [33]): 0.031 µg/mL (≈ 0.0576 µM)
MIC (Staphylococcus aureus [34]): 0.063 µg/mL (≈ 0.117 µM)
MIC (Staphylococcus aureus [35]): 0.031 µg/mL (≈ 0.0576 µM)
MIC (Staphylococcus aureus [36]): 0.016 µg/mL (≈ 0.0297 µM)
MIC (Staphylococcus aureus [37]): 0.031 µg/mL (≈ 0.0576 µM)
MIC (Staphylococcus aureus [38]): 0.063 µg/mL (≈ 0.117 µM)
MIC (Staphylococcus aureus [39]): 0.063 µg/mL (≈ 0.117 µM)
MIC (Staphylococcus aureus [40]): 0.125 µg/mL (≈ 0.232 µM)
MIC (Staphylococcus aureus [41]): 0.25 µg/mL (≈ 0.464 µM)
MIC (Staphylococcus aureus [42]): > 16 µg/mL
MIC (Staphylococcus aureus [43]): 0.063 µg/mL (≈ 0.117 µM)
MIC (Staphylococcus aureus [44]): 0.031 µg/mL (≈ 0.0576 µM)
MIC (Staphylococcus aureus [45]): 0.063 µg/mL (≈ 0.117 µM)
